Assay results from PubChem BioAssay AID1845212 (Molecular Pharmacology Branch, DTP, NCI, 2023).

Test system: NCI-H719 tumor spheroids, viability
Assay: Anticancer human tumor NCI-H719 cell line growth inhibition;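 also: spheroids exposed to compounds for seven days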;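 as to viability, T/C: percent viability relative to DMSO vehicle control as 100%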
Details: spheroids with HUVEC and MSC; for IC50: curve of first compound; for viability, T/C: stronger effect = lower value
Procedure, shortened: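 Complex spheroids of malignant cells with endothelial cells and mesenchymal stem cells; agents alone or combined, from near clinical Cmax (or 10 microM if unknown) down in half-log steps, 0.25% DMSO final.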

[1] = second compound 1 µM, first compound 0.00949 µM
[2] = second compound 1 µM, first compound 0.03 µM
[3] = second compound 1 µM, first compound 0.0949 µM
[4] = second compound 1 µM, first compound 0.3 µM
[5] = second compound 1 µM, first compound 0.949 µM
[6] = second compound 1 µM, first compound 3 µM
[7] = second compound 3.16 µM, first compound 0.00949 µM
[8] = second compound 3.16 µM, first compound 0.03 µM
[9] = second compound 3.16 µM, first compound 0.0949 µM
[10] = second compound 3.16 µM, first compound 0.3 µM
[11] = second compound 3.16 µM, first compound 0.949 µM
[12] = second compound 3.16 µM, first compound 3 µM
[13] = second compound 10 µM, first compound 0.00949 µM
[14] = second compound 10 µM, first compound 0.03 µM
[15] = second compound 10 µM, first compound 0.0949 µM
[16] = second compound 10 µM, first compound 0.3 µM
[17] = second compound 10 µM, first compound 0.949 µM
[18] = second compound 10 µM, first compound 3 µM
[19] = second compound 31.6 µM, first compound 0.00949 µM
[20] = second compound 31.6 µM, first compound 0.03 µM
[21] = second compound 31.6 µM, first compound 0.0949 µM
[22] = second compound 31.6 µM, first compound 0.3 µM
[23] = second compound 31.6 µM, first compound 0.949 µM
[24] = second compound 31.6 µM, first compound 3 µM
[25] = second compound 100 µM, first compound 0.00949 µM
[26] = second compound 100 µM, first compound 0.03 µM
[27] = second compound 100 µM, first compound 0.0949 µM
[28] = second compound 100 µM, first compound 0.3 µM
[29] = second compound 100 µM, first compound 0.949 µM
[30] = second compound 100 µM, first compound 3 µM

For `Cc1sc2c(c1C)C(c1ccc(Cl)cc1)=NC(CC(=O)Nc1ccc(O)cc1)c1nnc(C)n1-2` (stereo not given) + Cn1nnc2c(C(N)=O)ncn2c1=O, the IC50 (second compound 1 µM) was 79.9 nM, the IC50 (second compound 3.16 µM) was 137 nM and the IC50 (second compound 10 µM) was 201 nM. The IC50 (second compound 31.6 µM) was 71 nM, the IC50 (second compound 100 µM) was 54.1 nM and the viability, T/C [1] was 90.8%. The viability, T/C [2] was 80.5%, the viability, T/C [3] was 41.9% and the viability, T/C [4] was 20.6%. For the same molecule, the viability, T/C [5] was 4.49%, the viability, T/C [6] was 3.76% and the viability, T/C [7] was 95.2%. It also gave a viability, T/C [8] of 98.7%, a viability, T/C [9] of 65.9% and a viability, T/C [10] of 15.6%. For the same molecule, the viability, T/C [11] was 4.84%, the viability, T/C [12] was 3.28% and the viability, T/C [13] was 96.5%. The viability, T/C [14] was 89%, the viability, T/C [15] was 73.1% and the viability, T/C [16] was 39.8%. The viability, T/C [17] was 4.17%, the viability, T/C [18] was 2.94% and the viability, T/C [19] was 107%. For the same molecule, the viability, T/C [20] was 104%, the viability, T/C [21] was 31.9% and the viability, T/C [22] was 14.3%. It also gave a viability, T/C [23] of 3.77%, a viability, T/C [24] of 2.95% and a viability, T/C [25] of 88%. It also gave a viability, T/C [26] of 65%, a viability, T/C [27] of 37% and a viability, T/C [28] of 6.38%. For the same molecule, the viability, T/C [29] was 3.72% and the viability, T/C [30] was 3%.

For `CC1COCCN1c1cc(-c2ccnn2C)c2ccnc(-c3ccn[nH]3)c2n1` (stereo not given) + CC[C@@]1(O)C(=O)OCc2c1cc1n(c2=O)Cc2cc3c(CN(C)C)c(O)ccc3nc2-1, the IC50 (second compound 0.003 µM) was less than 31.6 nM, the IC50 (second compound 0.00949 µM) was less than 31.6 nM and the IC50 (second compound 0.03 µM) was less than 31.6 nM. The IC50 (second compound 0.0949 µM) was less than 31.6 nM, the IC50 (second compound 0.3 µM) was less than 31.6 nM and the viability, T/C (second compound 0.003 µM, first compound 0.0316 µM) was 14.9%. The viability, T/C (second compound 0.003 µM, first compound 0.1 µM) was 7.36%, the viability, T/C (second compound 0.003 µM, first compound 0.316 µM) was 5.05% and the viability, T/C (second compound 0.003 µM, first compound 1 µM) was 5.69%. The viability, T/C (second compound 0.003 µM, first compound 3.16 µM) was 5.95%, the viability, T/C (second compound 0.003 µM, first compound 10 µM) was 7.37% and the viability, T/C (second compound 0.00949 µM, first compound 0.0316 µM) was 5.44%. The viability, T/C (second compound 0.00949 µM, first compound 0.1 µM) was 4.76%, the viability, T/C (second compound 0.00949 µM, first compound 0.316 µM) was 5.26% and the viability, T/C (second compound 0.00949 µM, first compound 1 µM) was 4.81%. It also gave a viability, T/C (second compound 0.00949 µM, first compound 3.16 µM) of 5.91%, a viability, T/C (second compound 0.00949 µM, first compound 10 µM) of 7.24% and a viability, T/C (second compound 0.03 µM, first compound 0.0316 µM) of 5.59%. For the same molecule, the viability, T/C (second compound 0.03 µM, first compound 0.1 µM) was 5.35%, the viability, T/C (second compound 0.03 µM, first compound 0.316 µM) was 4.66% and the viability, T/C (second compound 0.03 µM, first compound 1 µM) was 4.18%. The viability, T/C (second compound 0.03 µM, first compound 3.16 µM) was 5.76%, the viability, T/C (second compound 0.03 µM, first compound 10 µM) was 7.48% and the viability, T/C (second compound 0.0949 µM, first compound 0.0316 µM) was 5.89%. It also gave a viability, T/C (second compound 0.0949 µM, first compound 0.1 µM) of 5.72%, a viability, T/C (second compound 0.0949 µM, first compound 0.316 µM) of 4.2% and a viability, T/C (second compound 0.0949 µM, first compound 1 µM) of 3.96%. The viability, T/C (second compound 0.0949 µM, first compound 3.16 µM) was 3.73%, the viability, T/C (second compound 0.0949 µM, first compound 10 µM) was 3.78% and the viability, T/C (second compound 0.3 µM, first compound 0.0316 µM) was 5.64%. The viability, T/C (second compound 0.3 µM, first compound 0.1 µM) was 5.76%, the viability, T/C (second compound 0.3 µM, first compound 0.316 µM) was 5.49% and the viability, T/C (second compound 0.3 µM, first compound 1 µM) was 2.94%. It also gave a viability, T/C (second compound 0.3 µM, first compound 3.16 µM) of 2.15% and a viability, T/C (second compound 0.3 µM, first compound 10 µM) of 2.17%.

In the case of `CNCc1ccc(-c2cc(-c3nc(-c4ccc(S(=O)(=O)C(C)C)cc4)cnc3N)on2)cc1` + Cn1nnc2c(C(N)=O)ncn2c1=O, the IC50 (second compound 1 µM) is reported as 131 nM, the IC50 (second compound 3.16 µM) is reported as 95.4 nM and the IC50 (second compound 10 µM) is reported as 162 nM. The IC50 (second compound 31.6 µM) was 94.4 nM, the IC50 (second compound 100 µM) was 33.6 nM and the viability, T/C [1] was 88.2%. The viability, T/C [2] was 95%, the viability, T/C [3] was 43.5% and the viability, T/C [4] was 39%. The viability, T/C [5] was 8.27%, the viability, T/C [6] was 0.15% and the viability, T/C [7] was 97.6%. It also gave a viability, T/C [8] of 94.2%, a viability, T/C [9] of 46.7% and a viability, T/C [10] of 18.9%. It also gave a viability, T/C [11] of 9.22%, a viability, T/C [12] of 0.14% and a viability, T/C [13] of 101%. It also gave a viability, T/C [14] of 93.7%, a viability, T/C [15] of 80.2% and a viability, T/C [16] of 15%. For the same molecule, the viability, T/C [17] was 8.28%, the viability, T/C [18] was 18.1% and the viability, T/C [19] was 105%. The viability, T/C [20] was 106%, the viability, T/C [21] was 49.8% and the viability, T/C [22] was 15.7%. It also gave a viability, T/C [23] of 8.28%, a viability, T/C [24] of 37.8% and a viability, T/C [25] of 80%. It also gave a viability, T/C [26] of 52.8%, a viability, T/C [27] of 24.4% and a viability, T/C [28] of 9.66%. It also gave a viability, T/C [29] of 39.1% and a viability, T/C [30] of 0.23%.
